Assay [1] concerns the target SHP-2 enzyme (Met1-Leu525) (Homo sapiens (Human), UniProt Q06124). Kind of assay: SHP2 inhibition enzymatic assay. Format: biochemical. Conditions: 0.5 nM SHP-2 activated by 500 nM IRS1 peptide, 75 μM DiFMUP substrate; read-out: SHP2wt-IC50. Here is the method: The assay was performed as described in YP Chen et al, Nature (535)2016. Assay volume of 20 μL/well was assembled in 384 well black polystyrene low-binding microplates (Greiner), using the following buffer: 60 mM HEPES pH 7.2, 75 mM NaCl, 75 mM KCl, 1 mM EDTA pH 8, 0.05% tween-20, 5 mM DTT. The SHP-2 enzyme (synthetized by Origene, Met1-Leu525, cat #TP750155) was used at a final concentration of 0.5 nM. The enzyme was activated by 500 nM IRS1 peptide (sequence: H2N-LN(pY)IDLDLV(dPEG8)LST(pY)ASINFQK-amide SEQ ID No. 1) and incubated with 75 μM DiFMUP (Sigma) as substrate.
Briefly, DMSO serially diluted testing compounds were transferred to the bottom of the assay plate. SHP2 was then added together with the IRS1 peptide. 30 min post incubation, the DiFMUP substrate was added to the reaction and incubated 30 min at room temperature. Finally 5 μL of 160 μM bpV (Potassium bisperoxo[1,10-phenanthroline]oxovanadate [V], Sigma) were added to stop and quench the reaction. The fluorescence was detected by a microplate reader (Envision, PerkinElmer) according to the DiFMUP excitation and emission wavelength. The lower the fluorescence the higher the SHP2 inhibition. […] The percentage inhibition is fitted against the compound dilutions with a four-parameter logistic regression. The inflection point (i.e. the concentration at which half-maximal inhibition is achieved) is the IC50.

The test system of assay [2] is ERK phosphorylation in KYSE-520 cells. The assay is described as follows: Phospho-ERK cellular assay. The assay is classed as cell-based. Conditions: Homo sapiens, KYSE-520, 2 h, KYSE-520 cells, 2 h at 37° C., phospho-ERK1/2 (Thr202/Tyr204) TR-FRET; read-out: PERK IC50. The method, boiled down:
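TR-FRET read-out of ERK1/2 Thr202/Tyr204 phosphorylation was taken after overnight antibody incubation at room temperature. Before that, KYSE-520 cells were treated 2 h at 37 °C with compound dilutions and lysed 30 min. Percent inhibition relative to vehicle and cell-free wells was fitted four-parametrically to give IC50.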

Sequence of SHP-2 enzyme (Met1-Leu525) (Q06124 1-525): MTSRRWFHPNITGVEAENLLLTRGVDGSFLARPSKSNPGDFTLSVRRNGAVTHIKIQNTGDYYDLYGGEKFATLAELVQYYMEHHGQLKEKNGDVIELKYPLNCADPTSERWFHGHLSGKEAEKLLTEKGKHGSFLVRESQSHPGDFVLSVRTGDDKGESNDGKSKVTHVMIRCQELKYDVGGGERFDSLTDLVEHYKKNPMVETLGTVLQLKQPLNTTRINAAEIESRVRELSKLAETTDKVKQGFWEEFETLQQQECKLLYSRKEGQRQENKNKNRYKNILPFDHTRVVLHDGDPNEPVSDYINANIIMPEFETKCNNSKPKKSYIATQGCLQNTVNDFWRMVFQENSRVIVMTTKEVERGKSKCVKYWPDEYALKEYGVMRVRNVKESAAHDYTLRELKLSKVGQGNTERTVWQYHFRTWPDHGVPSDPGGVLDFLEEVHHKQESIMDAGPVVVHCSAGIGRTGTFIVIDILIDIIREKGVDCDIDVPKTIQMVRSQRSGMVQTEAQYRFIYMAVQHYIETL

With `Cc1cc([C@@]2(CN)[C@@H]3CCN(c4cnc5c(-c6ccnc7ncccc67)n[nH]c5n4)C[C@@H]32)no1` [Example 38, ((1S,6R,7S)-3-(3-(1,8-naphthyridin-4-yl)-1H-pyrazolo[3,4-b]pyrazin-6-yl)-7-(5-methylisoxazol-3-yl)-3-azabicyclo[4.1.0]heptan-7-yl)methanamine], the IC50 (commonly the point on the concentration scale where inhibition reaches its midpoint) in assay [1] was less than 0.5 µM; in assay [2], less than 1 µM.
The matching figures for `Cc1cc([C@@]2(CN)[C@@H]3CCN(c4cnc5c(-c6ccnc7ccc(F)cc67)n[nH]c5n4)C[C@@H]32)no1` [Example 39, ((1S,6R,7S)-3-(3-(6-fluoroquinolin-4-yl)-1H-pyrazolo[3,4-b]pyrazin-6-yl)-7-(5-methylisoxazol-3-yl)-3-azabicyclo[4.1.0]heptan-7-yl)methanamine]: less than 0.5 µM and less than 1 µM.
In the case of `Cc1cc([C@@]2(CN)[C@@H]3CCN(c4cnc5c(-c6cccc7c6OCCO7)n[nH]c5n4)C[C@@H]32)no1` [Example 40, ((1S,6R,7S)-3-(3-(2,3-dihydrobenzo[b][1,4]dioxin-5-yl)-1H-pyrazolo[3,4-b]pyrazin-6-yl)-7-(5-methylisoxazol-3-yl)-3-azabicyclo[4.1.0]heptan-7-yl)methanamine], the IC50 in assay [1] is less than 0.5 µM; in assay [2] it was less than 1 µM.
The matching figures for `Cc1cc([C@@]2(CN)[C@@H]3CCN(c4cnc5c(-c6ccnc7cccc(F)c67)n[nH]c5n4)C[C@@H]32)no1` [Example 41, ((1S,6R,7S)-3-(3-(5-fluoroquinolin-4-yl)-1H-pyrazolo[3,4-b]pyrazin-6-yl)-7-(5-methylisoxazol-3-yl)-3-azabicyclo[4.1.0]heptan-7-yl)methanamine]: less than 0.5 µM and less than 1 µM.
The matching figures for `Cc1cc([C@@]2(CN)[C@@H]3CCN(c4cnc5c(-c6ccnc7ccc(Cl)cc67)n[nH]c5n4)C[C@@H]32)no1` [Example 42, ((1S,6R,7S)-3-(3-(6-chloroquinolin-4-yl)-1H-pyrazolo[3,4-b]pyrazin-6-yl)-7-(5-methylisoxazol-3-yl)-3-azabicyclo[4.1.0]heptan-7-yl)methanamine]: 0.5 to 3 µM and 1 to 5 µM.
For `Cc1cc([C@@]2(CN)[C@@H]3CCN(c4cnc5c(-c6ccc(C(F)(F)F)c7ncccc67)n[nH]c5n4)C[C@@H]32)no1` [Example 43, ((1S,6R,7S)-7-(5-methylisoxazol-3-yl)-3-(3-(8-(trifluoromethyl)quinolin-5-yl)-1H-pyrazolo[3,4-b]pyrazin-6-yl)-3-azabicyclo[4.1.0]heptan-7-yl)methanamine], in that order: less than 0.5 µM and less than 1 µM.
For the molecule `Cc1cc([C@@]2(CN)[C@@H]3CCN(c4cnc5c(-c6ccc7nn(C)c(Cl)c7c6Cl)n[nH]c5n4)C[C@@H]32)no1` [Example 44, ((1S,6R,7S)-3-(3-(3,4-dichloro-2-methyl-2H-indazol-5-yl)-1H-pyrazolo[3,4-b]pyrazin-6-yl)-7-(5-methylisoxazol-3-yl)-3-azabicyclo[4.1.0]heptan-7-yl)methanamine], the IC50 in assay [1] is less than 0.5 µM; in assay [2], less than 1 µM.
The matching figures for `Cc1cc([C@@]2(CN)[C@@H]3CCN(c4cnc5c(-c6ccnc7cc(F)ccc67)n[nH]c5n4)C[C@@H]32)no1` [Example 45, ((1S,6R,7S)-3-(3-(7-fluoroquinolin-4-yl)-1H-pyrazolo[3,4-b]pyrazin-6-yl)-7-(5-methylisoxazol-3-yl)-3-azabicyclo[4.1.0]heptan-7-yl)methanamine]: less than 0.5 µM and less than 1 µM.
`Cc1cc([C@@]2(CN)[C@@H]3CCN(c4cnc5c(-c6ccc7nn(C)cc7c6Cl)n[nH]c5n4)C[C@@H]32)no1` [Example 46, ((1S,6R,7S)-3-(3-(4-chloro-2-methyl-2H-indazol-5-yl)-1H-pyrazolo[3,4-b]pyrazin-6-yl)-7-(5-methylisoxazol-3-yl)-3-azabicyclo[4.1.0]heptan-7-yl)methanamine]: the IC50 in assay [1] was less than 0.5 µM; in assay [2], less than 1 µM.
